Test results taken from US4115541A (priority 1975, dated 1978).
Like-named read-outs stand apart in the source and are kept apart here.

How the values were obtained:
[1] = for Blood, % dose/1% body weight / Bone(Avg), % dose/1% body weight / Femur, % dose/1% body weight / Kidneys, % Dose in Whole Organ / Kidneys, % dose/1% body weight / Liver, % Dose in Whole Organ / Liver, % dose/1% body weight / Marrow, % Dose in Whole Organ / Marrow, % dose/1% body weight / Muscle, % dose/1% body weight / One femur, % dose in whole organ / Pelvis, % dose/1% body weight / Spine, % dose/1% body weight / Tibia, % dose/1% body weight / Blood, % Dose in Whole Organ: rabbits i.v., ~1 mg/kg EHDP
[2] = rabbits, 2 Hrs.
[3] = Localization in callous of three week-old tibial fractures in rabbits (Example 2); type: in vivo, albino rabbit; conditions: rabbits i.v.
Procedure: Adult New Zealand albino rabbits having an average weight of 3.8 kg were utilized. Strontium-85 was employed as a standard for comparison. […] Each dosage is contained in a volume of 1 ml.
The animals were sacrificed serially from 1 to 24 hours after injection and the activities in major organs were determined by counting multiple samples from each organ in a scintillation well counter (the technetium-99m counts were corrected for the Compton contributions from the strontium-85 activity in the technetium-99m energy window). Multiple samples were counted from the tibia, femur, spine and pelvic bones; the total activity in the skeleton was estimated by assuming the whole skeleton consisted of equal proportions by weight of tibia, spine, femur and pelvis and that the skeletal mass was 10% of the body weight. […] The whole liver and both kidneys were weighed and multiple samples from each were counted to measure the total activity in each organ.
In another series of experiments carried out as described above, localization of technetium from its tin-phosphonate complex was determined in the callous of three week-old fractures of tibia in albino rabbits, again in comparison with strontium-85. Comparative radioassay of technetium-99m administered as the pertechnetate was measured in the callous of tibial fractures in rabbits at one and four hours after administration.

For “tin-1-hydroxy-ethane-1,1-diphosphonate [^99m Tc-EHDP]”, the “skeletal concentrations compared with 85Sr” value ([1]; at various times) was “similar”, the “soft tissue and blood concentrations compared with 85Sr” value ([1]; at various times) was “much lower than those for 85Sr” and the “Blood, % dose/1% body weight” value ([1]; 1 Hr.) was 1.23 % dose/1% body weight. For the same substance, the “Bone(Avg), % dose/1% body weight” value ([1]; 1 Hr.) was 4.66 % dose/1% body weight, the “Femur, % dose/1% body weight” value ([1]; 1 Hr.) was 3.85 % dose/1% body weight and the “Kidneys, % Dose in Whole Organ” value ([1]; 1 Hr.) was 2.40 % dose. The “Kidneys, % dose/1% body weight” value ([1]; 1 Hr.) was 3.93 % dose/1% body weight, the “Liver, % Dose in Whole Organ” value ([1]; 1 Hr.) was 0.80 % dose and the “Liver, % dose/1% body weight” value ([1]; 1 Hr.) was 0.30 % dose/1% body weight. For the same substance, the “Marrow, % Dose in Whole Organ” value ([1]; 1 Hr.) was 0.70 % dose, the “Marrow, % dose/1% body weight” value ([1]; 1 Hr.) was 0.36 % dose/1% body weight and the “Muscle, % dose/1% body weight” value ([1]; 1 Hr.) was 0.15 % dose/1% body weight. For the same substance, the “One femur, % dose in whole organ” value ([1]; 1 Hr.) was 0.82 % dose, the “Pelvis, % dose/1% body weight” value ([1]; 1 Hr.) was 7.15 % dose/1% body weight and the “Spine, % dose/1% body weight” value ([1]; 1 Hr.) was 5.87 % dose/1% body weight. For the same substance, the “Tibia, % dose/1% body weight” value ([1]; 1 Hr.) was 2.17 % dose/1% body weight, the “Blood, % dose/1% body weight” value ([1]; 2 Hrs) was 0.37 % dose/1% body weight and the “Bone(Avg), % dose/1% body weight” value ([1]; 2 Hrs) was 4.82 % dose/1% body weight. The “Femur, % dose/1% body weight” value ([1]; 2 Hrs) was 3.94 % dose/1% body weight, the “Kidneys, % dose/1% body weight” value ([1]; 2 Hrs) was 2.72 % dose/1% body weight and the “Liver, % Dose in Whole Organ” value ([1]; 2 Hrs) was 0.42 % dose. For the same substance, the “Liver, % dose/1% body weight” value ([1]; 2 Hrs) was 0.18 % dose/1% body weight, the “Marrow, % Dose in Whole Organ” value ([1]; 2 Hrs) was 0.38 % dose and the “Marrow, % dose/1% body weight” value ([1]; 2 Hrs) was 0.17 % dose/1% body weight. For the same substance, the “Muscle, % dose/1% body weight” value ([1]; 2 Hrs) was 0.04 % dose/1% body weight, the “One femur, % dose in whole organ” value ([1]; 2 Hrs) was 0.84 % dose and the “Pelvis, % dose/1% body weight” value ([1]; 2 Hrs) was 7.40 % dose/1% body weight. The “Spine, % dose/1% body weight” value ([1]; 2 Hrs) was 5.44 % dose/1% body weight, the “Tibia, % dose/1% body weight” value ([1]; 2 Hrs) was 2.49 % dose/1% body weight and the “Blood, % Dose in Whole Organ” value ([1]; 4 Hrs) was 0.89 % dose. The “Bone(Avg), % dose/1% body weight” value ([1]; 4 Hrs) was 4.74 % dose/1% body weight, the “Femur, % dose/1% body weight” value ([1]; 4 Hrs) was 3.86 % dose/1% body weight and the “Kidneys, % Dose in Whole Organ” value ([1]; 4 Hrs) was 0.94 % dose. For the same substance, the “Kidneys, % dose/1% body weight” value ([1]; 4 Hrs) was 1.95 % dose/1% body weight, the “Liver, % Dose in Whole Organ” value ([1]; 4 Hrs) was 0.28 % dose and the “Marrow, % Dose in Whole Organ” value ([1]; 4 Hrs) was 0.83 % dose. The “Marrow, % dose/1% body weight” value ([1]; 4 Hrs) was 0.38 % dose/1% body weight, the “One femur, % dose in whole organ” value ([1]; 4 Hrs) was 0.81 % dose and the “Pelvis, % dose/1% body weight” value ([1]; 4 Hrs) was 7.41 % dose/1% body weight. The “Spine, % dose/1% body weight” value ([1]; 4 Hrs) was 5.52 % dose/1% body weight, the “Tibia, % dose/1% body weight” value ([1]; 4 Hrs) was 2.16 % dose/1% body weight and the “Blood, % Dose in Whole Organ” value ([1]; 24 Hrs) was 0.49 % dose. The “Blood, % dose/1% body weight” value ([1]; 24 Hrs) was 0.07 % dose/1% body weight, the “Bone(Avg), % dose/1% body weight” value ([1]; 24 Hrs) was 4.14 % dose/1% body weight and the “Femur, % dose/1% body weight” value ([1]; 24 Hrs) was 3.42 % dose/1% body weight. For the same substance, the “Kidneys, % Dose in Whole Organ” value ([1]; 24 Hrs) was 0.63 % dose, the “Kidneys, % dose/1% body weight” value ([1]; 24 Hrs) was 1.29 % dose/1% body weight and the “Liver, % Dose in Whole Organ” value ([1]; 24 Hrs) was 0.43 % dose. For the same substance, the “Liver, % dose/1% body weight” value ([1]; 24 Hrs) was 0.28 % dose/1% body weight, the “Marrow, % Dose in Whole Organ” value ([1]; 24 Hrs) was 0.42 % dose and the “Marrow, % dose/1% body weight” value ([1]; 24 Hrs) was 0.19 % dose/1% body weight. For the same substance, the “One femur, % dose in whole organ” value ([1]; 24 Hrs) was 0.76 % dose, the “Pelvis, % dose/1% body weight” value ([1]; 24 Hrs) was 5.70 % dose/1% body weight and the “Spine, % dose/1% body weight” value ([1]; 24 Hrs) was 5.30 % dose/1% body weight. For the same substance, the “Tibia, % dose/1% body weight” value ([1]; 24 Hrs) was 2.10 % dose/1% body weight, the “Blood, % Dose in Whole Organ” value ([2]; EHDP 0.01 mg/kg) was 0.99 % Dose and the “Blood, % Dose/1%-body weight” value ([2]; EHDP 0.01 mg/kg) was 0.142 % Dose/1%-body weight. For the same substance, the “Femur, % Dose/1%-body weight” value ([2]; EHDP 0.01 mg/kg) was 7.49 % Dose/1%-body weight, the “Kidney, % Dose/1%-body weight” value ([2]; EHDP 0.01 mg/kg) was 1.55 % Dose/1%-body weight and the “Kidneys, % Dose in Whole Organ” value ([2]; EHDP 0.01 mg/kg) was 0.81 % Dose. The “Liver, % Dose in Whole Organ” value ([2]; EHDP 0.01 mg/kg) was 0.53 % Dose, the “Liver, % Dose/1%-body weight” value ([2]; EHDP 0.01 mg/kg) was 0.154 % Dose/1%-body weight and the “Marrow, % Dose in Whole Organ” value ([2]; EHDP 0.01 mg/kg) was 0.34 % Dose. For the same substance, the “Marrow, % Dose/1%-body weight” value ([2]; EHDP 0.01 mg/kg) was 0.152 % Dose/1%-body weight, the “Muscle, % Dose in Whole Organ” value ([2]; EHDP 0.01 mg/kg) was 0.78 % Dose and the “One femur, % dose in whole organ” value ([2]; EHDP 0.01 mg/kg) was 2.20 % Dose. For the same substance, the “Tibia, % Dose/1%-body weight” value ([2]; EHDP 0.01 mg/kg) was 8.22 % Dose/1%-body weight, the “Blood, % Dose/1%-body weight” value ([2]; EHDP 0.05 mg/kg) was 0.193 % Dose/1%-body weight and the “Femur, % Dose/1%-body weight” value ([2]; EHDP 0.05 mg/kg) was 8.38 % Dose/1%-body weight. For the same substance, the “Kidney, % Dose/1%-body weight” value ([2]; EHDP 0.05 mg/kg) was 3.83 % Dose/1%-body weight, the “Kidneys, % Dose in Whole Organ” value ([2]; EHDP 0.05 mg/kg) was 2.9 % Dose and the “Liver, % Dose/1%-body weight” value ([2]; EHDP 0.05 mg/kg) was 0.432 % Dose/1%-body weight. The “Marrow, % Dose in Whole Organ” value ([2]; EHDP 0.05 mg/kg) was 0.78 % Dose, the “Marrow, % Dose/1%-body weight” value ([2]; EHDP 0.05 mg/kg) was 0.353 % Dose/1%-body weight and the “Tibia, % Dose/1%-body weight” value ([2]; EHDP 0.05 mg/kg) was 8.68 % Dose/1%-body weight. For the same substance, the “Blood, % Dose/1%-body weight” value ([2]; EHDP 0.1 mg/kg) was 0.146 % Dose/1%-body weight, the “Femur, % Dose/1%-body weight” value ([2]; EHDP 0.1 mg/kg) was 8.97 % Dose/1%-body weight and the “Kidney, % Dose/1%-body weight” value ([2]; EHDP 0.1 mg/kg) was 1.09 % Dose/1%-body weight. The “Kidneys, % Dose in Whole Organ” value ([2]; EHDP 0.1 mg/kg) was 0.63 % Dose, the “Liver, % Dose in Whole Organ” value ([2]; EHDP 0.1 mg/kg) was 0.19 % Dose and the “Liver, % Dose/1%-body weight” value ([2]; EHDP 0.1 mg/kg) was 0.068 % Dose/1%-body weight. The “Marrow, % Dose in Whole Organ” value ([2]; EHDP 0.1 mg/kg) was 0.20 % Dose, the “Marrow, % Dose/1%-body weight” value ([2]; EHDP 0.1 mg/kg) was 0.093 % Dose/1%-body weight and the “Muscle, % Dose in Whole Organ” value ([2]; EHDP 0.1 mg/kg) was 0.98 % Dose. For the same substance, the “Tibia, % Dose/1%-body weight” value ([2]; EHDP 0.1 mg/kg) was 9.63 % Dose/1%-body weight, the “Blood, % Dose/1%-body weight” value ([2]; EHDP 0.5 mg/kg) was 0.215 % Dose/1%-body weight and the “Kidney, % Dose/1%-body weight” value ([2]; EHDP 0.5 mg/kg) was 2.23 % Dose/1%-body weight. For the same substance, the “Kidneys, % Dose in Whole Organ” value ([2]; EHDP 0.5 mg/kg) was 1.10 % Dose, the “Liver, % Dose in Whole Organ” value ([2]; EHDP 0.5 mg/kg) was 0.260 % Dose and the “Liver, % Dose/1%-body weight” value ([2]; EHDP 0.5 mg/kg) was 0.086 % Dose/1%-body weight. The “Marrow, % Dose in Whole Organ” value ([2]; EHDP 0.5 mg/kg) was 0.19 % Dose, the “Marrow, % Dose/1%-body weight” value ([2]; EHDP 0.5 mg/kg) was 0.088 % Dose/1%-body weight and the “Callus, % dose/1% body weight” value ([3]; 1 Hr.) was 24.7 % dose/1% body weight. The “Callus, % dose/1% body weight” value ([3]; 4 Hrs) was 28.9 % dose/1% body weight.
